Assay results published in US20200147028A1, “TREATMENT OF RESPIRATORY INFECTION WITH A TLR2 AGONIST” (Ena Therapeutics Pty Ltd, priority 2017, published 2020).
“Also recorded” adds a separate entry of the source. Like-named read-outs stand apart in the source and are kept apart here. No end group written: not given here.

Columns and labels:
TNF-α = assay: Mouse RV1B infection with fluticasone propionate: TNF-α in BAL by ELISA; type: in vivo, BALB/c mice; details: FP treatment
[1] = system: Rhinovirus serotype 1B (RV1B); assay: Mouse RV1B infection with fluticasone propionate: lung viral RNA by qPCR; details: FP 1 hour before RV1B in Saline control mice
[2] = type: in vivo, BALB/c mice; details: 2 pmol INNA-006 day −7 or day −7 & −1; FP 1 hour before RV1B
Source text: Each group contained 8 mice.

BAL inflammatory cells = assay: Mouse RV1B infection model: BAL cell analysis
Method: Following sacrifice, mice were tracheally cannulated and 1 ml of Hanks buffered saline solution (Hyclone™, GE Life Sciences) flushed through the airways, 3-5 times. BAL cells were pelleted by centrifugation and supernatant was collected and stored at −80° C. for ELISAs. The pelleted cells were red blood cells lysed and the remaining cells were counted on a heamocytometer by trypan blue exclusion. Cell suspensions were then cytocentrifuged onto slides and fixed and stained with Diff Quick (POCD) solutions as per manufacturer's recommendations. A minimum of 200 total cells were counted per slide and numbers of neutrophils, lymphocytes, and macrophages were determined.

TNFα = assay: Mouse RV1B infection model: TNFα in BAL by ELISA
Method: (§1) Remaining lung lobes we snap frozen in liquid nitrogen, homogenised in 600 μl PBS containing protease inhibitors (Roche) by TissueLyser II run twice at 30 Hz for 4 minutes. Cell debris was pelleted by centrifugation, samples were diluted 1:2 with PBS and stored at −80° C. BAL fluid was then analysed for production of KC/IL-8 (CXCL1) and TNF-α by Duoset ELISA (R&D Systems) as per manufacturer's instructions.

[3] = parameters: species or system BALB/c mice; details: mouse, in vivo
Source text: Each group contained 5 mice.

[4] = system: Rhinovirus serotype 1B (RV1B); assay: Mouse RV1B infection model: lung viral RNA by qPCR; details: for reduction of RV infection (lung RV copy number): Study 1E: 10 pmol day −7; for RV copy number in lung: Study 1E: every dose 1-10 pmol day −7; for lung viral load: day +1
CXCL1 = assay: Mouse RV1B infection model: CXCL1 in BAL by ELISA
Method: as §1

TLR-2 = TLR-2 (Homo sapiens, UniProt O60603); assay: NF-κB luciferase reporter in HEK293T cells transfected with human TLR2; type: cell-based; parameters: expressed in transfected cells; host or cells: HEK293T; details: dose range 12.2 pM to 3.125 pM, FIG. 20
Method: Comparison of the abilities of various compounds to stimulate luciferase activity in an NF-κB cell-based reporter system was determined. Compounds tested include INNA-006 (or compound (1)); INNA-013 (or compound (4)); INNA-014 (or compound (3)); INNA-015 (or compound (2)); INNA-010; INNA-011 (or compound (5)); INNA-012 (or compound (6)); and INNA-009. HEK293T cells, transiently co-transfected with a human TLR2 plasmid and a luciferase-NF-κB plasmid reporter system, were exposed to various dilutions of each compound. Successful receptor binding and subsequent signal transduction events were determined by measuring the luminescence due to luciferase activity (results shown in FIG. 19—left to right columns for each concentration are in the following order INNA-006 (or compound (1)); INNA-013 (or compound (4)); INNA-014 (or compound (3)); INNA-015 (or compound (2)); INNA-010; INNA-011 (or compound (5)); INNA-012 (or compound (6)); and INNA-009.
Comparison of the in vitro TLR2 agonistic activity of Pam3Cys-Ser-PEG3000 and INNA-006: HEK293T cells, transiently co-transfected with a human TLR2 plasmid and a luciferase-NF-κB plasmid reporter system, were exposed to various dilutions of INNA-006 or Pam3Cys-Ser-PEG3000.
Successful receptor binding and subsequent signal transduction events were determined by measuring the luminescence due to luciferase activity (FIG. 20).

[5] = Study 1G: lowest doses (2 pmole and 1 pmole) day +1, listed as Peg-SS-Pam2Cys

TLR-2, sequence (O60603 21-784): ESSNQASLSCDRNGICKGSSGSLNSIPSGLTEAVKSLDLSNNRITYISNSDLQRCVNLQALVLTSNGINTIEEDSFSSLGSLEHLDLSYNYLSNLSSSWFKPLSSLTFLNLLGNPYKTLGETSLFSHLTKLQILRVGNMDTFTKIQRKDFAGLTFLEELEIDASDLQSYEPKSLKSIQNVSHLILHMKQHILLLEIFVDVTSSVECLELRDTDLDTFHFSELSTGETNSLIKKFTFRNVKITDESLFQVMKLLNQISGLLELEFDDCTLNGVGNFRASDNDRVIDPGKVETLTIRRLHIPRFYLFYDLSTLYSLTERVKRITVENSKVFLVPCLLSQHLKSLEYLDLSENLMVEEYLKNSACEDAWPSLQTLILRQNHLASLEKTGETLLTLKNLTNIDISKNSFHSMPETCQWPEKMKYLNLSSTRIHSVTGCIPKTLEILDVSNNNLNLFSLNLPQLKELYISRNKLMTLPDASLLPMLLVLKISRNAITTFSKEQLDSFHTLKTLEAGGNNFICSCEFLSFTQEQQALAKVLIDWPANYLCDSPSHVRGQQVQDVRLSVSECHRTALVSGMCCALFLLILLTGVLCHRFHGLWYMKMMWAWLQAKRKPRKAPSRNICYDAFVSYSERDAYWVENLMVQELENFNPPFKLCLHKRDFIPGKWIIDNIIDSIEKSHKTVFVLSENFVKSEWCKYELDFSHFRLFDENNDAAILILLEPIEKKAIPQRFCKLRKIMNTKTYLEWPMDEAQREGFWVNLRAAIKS
TLR-2, sequence (Q15399 25-786 partner): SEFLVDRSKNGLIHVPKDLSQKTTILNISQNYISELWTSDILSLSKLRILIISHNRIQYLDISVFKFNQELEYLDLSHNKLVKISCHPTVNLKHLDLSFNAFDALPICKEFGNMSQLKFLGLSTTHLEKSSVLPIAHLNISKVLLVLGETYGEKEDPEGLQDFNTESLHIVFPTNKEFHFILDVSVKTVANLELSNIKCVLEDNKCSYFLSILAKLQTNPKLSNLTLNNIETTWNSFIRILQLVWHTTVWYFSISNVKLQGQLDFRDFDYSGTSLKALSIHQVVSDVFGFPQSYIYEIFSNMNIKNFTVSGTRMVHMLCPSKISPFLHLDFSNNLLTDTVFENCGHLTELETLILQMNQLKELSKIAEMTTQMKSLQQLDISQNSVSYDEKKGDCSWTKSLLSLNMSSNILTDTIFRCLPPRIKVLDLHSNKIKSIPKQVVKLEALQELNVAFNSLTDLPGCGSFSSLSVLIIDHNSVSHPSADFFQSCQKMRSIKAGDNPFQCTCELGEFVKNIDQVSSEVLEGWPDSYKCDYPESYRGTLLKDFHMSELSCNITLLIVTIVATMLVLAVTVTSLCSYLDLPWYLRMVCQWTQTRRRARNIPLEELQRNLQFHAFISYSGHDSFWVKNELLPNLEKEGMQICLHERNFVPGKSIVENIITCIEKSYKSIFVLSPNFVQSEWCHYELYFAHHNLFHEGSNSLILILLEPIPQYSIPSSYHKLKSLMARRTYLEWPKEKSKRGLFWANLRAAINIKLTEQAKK

CCC(=O)O[C@]1(C(=O)SCF)[C@H](C)C[C@H]2[C@@H]3C[C@H](F)C4=CC(=O)C=C[C@]4(C)[C@@]3(F)[C@@H](O)C[C@@]21C [FP, fluticasone propionate, reference compound]
TNF-α production stimulated by INNA-006 (TNF-α): reduced TNF-α production stimulated by INNA-006 | viral lung load [1]: Viral lung load was increased; also recorded: increased viral lung load in Saline control mice only | weight loss [2]: no significant weight loss

Pam2Cys-SS-PEG [INNA-003]
RV-induced BAL neutrophilic inflammation (BAL inflammatory cells; Study 1E: day −7, day 2 p.i.): significantly reduced neutrophilic inflammation | inflammatory potency, Peg-SS-Pam2Cys versus Peg-S-Pam2Cys (BAL inflammatory cells; Study 1F): Peg-SS-Pam2Cys more inflammatory | BAL neutrophils (BAL inflammatory cells; Study 1F: 2 pmol, 1 day prior to RV or mock infection): only significantly increased in mice with Peg-SS-Pam2Cys treatment 1 day prior to RV or mock infection | BAL lymphocytes (BAL inflammatory cells; Study 1F: 2 pmol, day −7, day −1 or both): induced by Peg-SS-Pam2Cys at all treatment times (except day −7 treatment with RV1B infection) | total BAL leukocytes in RV1B infected mice (BAL inflammatory cells; Study 1F: 2 pmol, vs Saline RV): did not induce significantly higher leukocyte recruitment | total BAL leukocytes in mock infected mice (BAL inflammatory cells; Study 1F: 2 pmol, vs Saline mock): Total leukocytes were increased | neutrophilic response in uninfected mice (BAL inflammatory cells; Study 1F: three days after dosing (d-1 groups)): there was a neutrophilic response to Peg-SS-Pam2Cys | BAL lymphocytes (BAL inflammatory cells; Study 1G: day +1 treatment): no changes to lymphocyte numbers | BAL macrophages (BAL inflammatory cells; Study 1G: day +1 treatment): significantly reducing macrophage numbers | total BAL leucocyte numbers (BAL inflammatory cells; Study 1G: day +1 treatment): no significant differences | BAL neutrophils (BAL inflammatory cells; Study 1G: day +1 treatment, listed as Peg-SS-Pam2Cys): drastically increases neutrophil numbers in BAL; also recorded: increasing neutrophil recruitment | TNF-α in BAL (TNFα; Study 1E: day −7, listed as Peg-SS-Pam2Cys): not increased by any of the compounds; also recorded: lack of induction of TNFα | TNF-α in BAL (TNFα; Study 1F: 2 pmol, all groups): did not induce TNF-α in any of the groups | TNF-α in BAL (TNFα; Study 1G: 10-1 pmol day +1): dose dependent upon drug treatment | TNF-α in BAL (TNFα; [5]): not increased by the lowest doses; also recorded: no significant increase in KC or TNFα | weight loss [3]: weight loss at the higher doses | weight loss after second dose [3]: no weight loss observed | reduction of RV infection (lung RV copy number) [4]: 84.82% | anti-viral efficacy relative to Pam2CysSK4 ([4]; Study 1E: 10 pmol dose day −7, listed as Peg-SS-Pam2Cys): better anti-viral efficacy compared to Pam2CysSK4 | RV copy number in lung ([4]; day 2 p.i.): significant reduction in RV infection | reduced viral RNA ([4]; Study 1F: single treatment at day −7): 70% | reduction in viral RNA ([4]; Study 1F: treatment at both days −7 and −1): approx. 90% | RV copy numbers in lung ([4]; Study 1G: 10, 5, 2, 1 pmol 1 day post-infection, day 2 p.i.): reduces RV1B copy numbers in the lung | lung viral load ([4]; Study 1G: doses 5 pmole per mouse and lower): significant reduction in lung viral load | lung viral load ([4]; Study 1G: highest dose 10 pmole per mouse): less effective | CXCL1 in BAL (CXCL1; Study 1E: every dose (1-10 pmol) day −7): effectively reduced CXCL1 levels | CXCL1 in BAL (CXCL1; Study 1F: 2 pmol day −1, RV1B, listed as Peg-SS-Pam2Cys): CXCL1 production was only increased; also recorded: significantly increased in mice treated one day prior to infection | CXCL1 / lung inflammation after day −1 dose with prior day −7 dose (CXCL1; Study 1F: 2 pmol day −7 and day −1, listed as Peg-SS-Pam2Cys): protected from lung inflammation; also recorded: completely abolished | CXCL1 in BAL (CXCL1; Study 1G: 10-1 pmol day +1): dose dependent upon drug treatment | CXCL1 (KC) in BAL (CXCL1; [5]): not increased by the lowest doses; also recorded: no significant increase in KC or TNFα

Pam2Cys-Ser-Lys-Lys-Lys-Lys (C(dipalmitoyl‑S‑glyceryl)SKKKK) [INNA-005, reference compound]
TNF-α in BAL (TNFα; Study 1E: day −7): not increased by any of the compounds | reduction in lung viral load ([4]; Study 1E, day −7 (discussion)): 50% | reduction of RV infection (lung RV copy number) [4]: 58% | RV copy number in lung ([4]; day 2 p.i.): significant reduction in RV infection | CXCL1 in BAL (CXCL1; Study 1E: 10 pmol and 5 pmol dose day −7): effectively reduced CXCL1 levels

Pam3Cys-Ser-PEG3000
ability to signal NF-κB (luciferase), versus INNA-006 (TLR-2): inferior to INNA-006
